In general, IC50 refers to the concentration that gives 50% inhibition.

Insulin receptor, sequence (P15127 27-759 limits assumed): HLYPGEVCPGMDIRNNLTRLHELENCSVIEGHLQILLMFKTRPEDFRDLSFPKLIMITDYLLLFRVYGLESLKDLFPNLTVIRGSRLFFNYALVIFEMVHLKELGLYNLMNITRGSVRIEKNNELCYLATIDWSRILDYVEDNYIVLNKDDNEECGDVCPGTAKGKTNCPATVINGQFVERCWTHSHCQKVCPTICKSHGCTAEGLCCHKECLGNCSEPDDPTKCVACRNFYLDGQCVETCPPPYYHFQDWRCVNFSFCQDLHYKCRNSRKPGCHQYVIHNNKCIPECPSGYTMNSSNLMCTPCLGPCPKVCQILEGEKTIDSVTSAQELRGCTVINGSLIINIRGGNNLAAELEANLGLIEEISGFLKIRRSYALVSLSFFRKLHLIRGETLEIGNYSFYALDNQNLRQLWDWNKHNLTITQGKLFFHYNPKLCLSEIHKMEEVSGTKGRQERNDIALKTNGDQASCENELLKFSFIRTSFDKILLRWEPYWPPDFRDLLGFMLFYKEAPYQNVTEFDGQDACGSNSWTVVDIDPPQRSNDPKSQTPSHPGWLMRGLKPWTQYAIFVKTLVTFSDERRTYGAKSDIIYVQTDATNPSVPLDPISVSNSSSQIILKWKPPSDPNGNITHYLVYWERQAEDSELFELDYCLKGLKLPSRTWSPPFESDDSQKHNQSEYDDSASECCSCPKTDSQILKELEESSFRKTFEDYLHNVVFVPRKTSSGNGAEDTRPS
Insulin receptor, sequence (P15127 764-1383 limits assumed): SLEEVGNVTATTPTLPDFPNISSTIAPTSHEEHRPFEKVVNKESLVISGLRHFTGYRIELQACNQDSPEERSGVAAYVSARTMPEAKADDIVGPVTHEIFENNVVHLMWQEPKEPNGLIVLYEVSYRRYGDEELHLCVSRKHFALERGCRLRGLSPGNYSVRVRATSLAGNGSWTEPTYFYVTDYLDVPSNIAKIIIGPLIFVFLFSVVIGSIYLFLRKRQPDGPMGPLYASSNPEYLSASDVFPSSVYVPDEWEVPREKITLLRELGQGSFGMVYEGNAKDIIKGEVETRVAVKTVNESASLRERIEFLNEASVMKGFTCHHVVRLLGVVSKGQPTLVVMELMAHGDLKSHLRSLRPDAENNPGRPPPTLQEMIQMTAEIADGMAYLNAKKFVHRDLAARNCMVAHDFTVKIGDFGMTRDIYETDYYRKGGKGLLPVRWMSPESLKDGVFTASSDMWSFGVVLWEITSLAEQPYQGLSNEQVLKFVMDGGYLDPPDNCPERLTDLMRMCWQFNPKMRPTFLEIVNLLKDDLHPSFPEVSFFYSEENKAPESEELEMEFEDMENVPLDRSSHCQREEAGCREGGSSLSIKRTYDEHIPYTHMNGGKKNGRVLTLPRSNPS
Melanocortin receptor 3, sequence (P41968 whole entry): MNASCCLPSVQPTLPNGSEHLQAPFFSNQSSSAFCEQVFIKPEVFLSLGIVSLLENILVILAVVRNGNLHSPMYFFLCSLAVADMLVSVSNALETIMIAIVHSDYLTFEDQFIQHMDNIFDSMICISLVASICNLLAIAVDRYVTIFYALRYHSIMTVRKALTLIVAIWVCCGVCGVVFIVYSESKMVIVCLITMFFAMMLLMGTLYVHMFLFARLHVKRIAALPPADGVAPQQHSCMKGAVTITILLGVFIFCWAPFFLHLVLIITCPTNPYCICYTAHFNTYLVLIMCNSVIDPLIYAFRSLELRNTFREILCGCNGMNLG

The target of the first assay is Melanocortin receptor 5 (Homo sapiens, UniProt P33032). Further: in other assays of this panel Not Active means under 50% inhibition at 10 µM.
Melanocortin receptor 5, sequence (P33032 whole entry): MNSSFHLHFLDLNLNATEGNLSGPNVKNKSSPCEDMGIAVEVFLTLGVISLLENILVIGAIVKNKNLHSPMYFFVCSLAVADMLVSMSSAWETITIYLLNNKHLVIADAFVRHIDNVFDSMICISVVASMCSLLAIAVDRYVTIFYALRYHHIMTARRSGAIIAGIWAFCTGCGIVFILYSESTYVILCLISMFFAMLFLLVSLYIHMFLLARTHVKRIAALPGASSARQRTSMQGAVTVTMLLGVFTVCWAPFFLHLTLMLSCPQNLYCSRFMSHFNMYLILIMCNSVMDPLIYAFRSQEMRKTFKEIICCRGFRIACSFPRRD
Experiment: not given
The assay is classed as cell membranes, HEK293, Membrane. The following applies: hek293.
Take `Cc1cc(NS(=O)(=O)c2ccc(N)cc2)no1` [SULFAMETHOXAZOLE]: the IC50 entry is recorded as “Not Active”.

Take `CSc1ccc2c(c1)N(CCC1CCCCN1C)c1ccccc1S2` (configuration not stated) [THIORIDAZINE]: the IC50 entry was “Not Active”.

In the case of `COc1cccc(C2(O)CCCCC2CN(C)C)c1` (configuration not stated) [TRAMADOL], the IC50 result was “Not Active”.

Consider `O=C(CCCN1CCC(O)(c2ccc(Cl)cc2)CC1)c1ccc(F)cc1` [HALOPERIDOL], for which the IC50 result is recorded as “Not Active”.

The next assay deals with 5-hydroxytryptamine receptor 1B (Rattus norvegicus, UniProt P28564).
5-hydroxytryptamine receptor 1B, sequence (P28564 whole entry): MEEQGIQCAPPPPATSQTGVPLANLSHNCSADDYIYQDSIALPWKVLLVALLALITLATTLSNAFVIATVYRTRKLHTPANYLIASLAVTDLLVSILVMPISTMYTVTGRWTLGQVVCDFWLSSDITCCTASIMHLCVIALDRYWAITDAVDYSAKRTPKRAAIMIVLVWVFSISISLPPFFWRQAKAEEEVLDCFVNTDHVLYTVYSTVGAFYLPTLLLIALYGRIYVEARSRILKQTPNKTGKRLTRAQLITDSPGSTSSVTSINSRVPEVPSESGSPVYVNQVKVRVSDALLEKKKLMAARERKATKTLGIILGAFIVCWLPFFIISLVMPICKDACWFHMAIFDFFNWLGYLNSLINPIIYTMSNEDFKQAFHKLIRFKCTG
Experiment: not given
The assay is classed as cell membranes, Wistar, Cerebral cortex, Membrane.
Conditions: not given
Consider `Cc1cc(NS(=O)(=O)c2ccc(N)cc2)no1` [SULFAMETHOXAZOLE], for which the IC50 entry is given as “Not Active”.

Take `CSc1ccc2c(c1)N(CCC1CCCCN1C)c1ccccc1S2` (configuration not stated) [THIORIDAZINE]: the IC50 result is given as “Not Active”.

As for `COc1cccc(C2(O)CCCCC2CN(C)C)c1` (configuration not stated) [TRAMADOL], the IC50 result is “Not Active”.

Regarding `O=C(CCCN1CCC(O)(c2ccc(Cl)cc2)CC1)c1ccc(F)cc1` [HALOPERIDOL], the IC50 result is “Not Active”.

For the next assay, the target named is Tyrosine-protein kinase Fyn (Homo sapiens, UniProt P06241). Description: biochemical. The format is cell-based, Insect cells. The following applies: insect cells.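 Further: enzymatic inhibition of Fyn kinase activity measured with Poly(Glu:Tyr) as the phosphorylation substrate; in other assays of this panel Not Active means under 50% inhibition at 10 µM.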
Tyrosine-protein kinase Fyn, sequence (P06241 whole entry): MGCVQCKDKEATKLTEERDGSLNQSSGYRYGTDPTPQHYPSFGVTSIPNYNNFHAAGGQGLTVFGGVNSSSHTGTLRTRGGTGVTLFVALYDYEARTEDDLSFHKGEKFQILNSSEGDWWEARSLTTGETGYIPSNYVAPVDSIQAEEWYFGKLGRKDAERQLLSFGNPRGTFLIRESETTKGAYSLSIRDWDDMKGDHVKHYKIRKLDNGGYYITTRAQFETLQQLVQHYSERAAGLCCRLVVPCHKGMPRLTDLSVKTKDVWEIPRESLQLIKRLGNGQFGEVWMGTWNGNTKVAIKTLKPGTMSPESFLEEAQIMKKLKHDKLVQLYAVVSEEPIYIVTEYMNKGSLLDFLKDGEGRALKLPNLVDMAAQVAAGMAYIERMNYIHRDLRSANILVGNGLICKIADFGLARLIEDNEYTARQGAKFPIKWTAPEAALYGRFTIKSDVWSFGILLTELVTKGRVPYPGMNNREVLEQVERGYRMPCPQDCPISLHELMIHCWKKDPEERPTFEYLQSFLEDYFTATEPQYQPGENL
As to `Cc1cc(NS(=O)(=O)c2ccc(N)cc2)no1` [SULFAMETHOXAZOLE], the IC50 entry is listed as “Not Active”.

As to `COc1cccc(C2(O)CCCCC2CN(C)C)c1` (configuration not stated) [TRAMADOL], the IC50 result is on record as “Not Active”.

On to `O=C(CCCN1CCC(O)(c2ccc(Cl)cc2)CC1)c1ccc(F)cc1` [HALOPERIDOL], for which the concentration for half-maximal inhibition (IC50) result is “Not Active”.

Still in this assay, the particulars now being: read-out: IC50.
Consider `CSc1ccc2c(c1)N(CCC1CCCCN1C)c1ccccc1S2` (configuration not stated) [THIORIDAZINE], for which the IC50 was 5.05 µM.

The next assay concerns the target T1, Caspase-1 (Homo sapiens, UniProt P29466).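 Further: Caspase-1 enzyme inhibition assay with a peptide substrate; in other assays of this panel Not Active means under 50% inhibition at 10 µM.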
T1 sequence (P29466 whole entry): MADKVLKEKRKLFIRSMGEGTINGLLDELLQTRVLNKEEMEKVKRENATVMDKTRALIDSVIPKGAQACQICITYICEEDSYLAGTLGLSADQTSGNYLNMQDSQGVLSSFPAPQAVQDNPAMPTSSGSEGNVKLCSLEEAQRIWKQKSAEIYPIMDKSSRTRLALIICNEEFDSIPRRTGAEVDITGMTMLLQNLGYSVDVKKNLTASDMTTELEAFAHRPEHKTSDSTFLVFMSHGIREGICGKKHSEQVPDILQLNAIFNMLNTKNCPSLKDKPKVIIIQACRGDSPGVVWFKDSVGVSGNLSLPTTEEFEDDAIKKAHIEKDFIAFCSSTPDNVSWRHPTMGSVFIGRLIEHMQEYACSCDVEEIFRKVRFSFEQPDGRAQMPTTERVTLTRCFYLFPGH
Experiment: not given
Conditions: not given
The arrangement: species or system Escherichia coli.
On to `Cc1cc(NS(=O)(=O)c2ccc(N)cc2)no1` [SULFAMETHOXAZOLE], for which the IC50 entry is given as “Not Active”.

For `CSc1ccc2c(c1)N(CCC1CCCCN1C)c1ccccc1S2` (configuration not stated) [THIORIDAZINE], the IC50 entry is listed as “Not Active”.

With `COc1cccc(C2(O)CCCCC2CN(C)C)c1` (configuration not stated) [TRAMADOL], the IC50 entry was “Not Active”.

Regarding `O=C(CCCN1CCC(O)(c2ccc(Cl)cc2)CC1)c1ccc(F)cc1` [HALOPERIDOL], the IC50 entry is reported as “Not Active”.

The next assay addresses Melanocortin receptor 3 (Homo sapiens, UniProt P41968).
Experiment: not given
The assay is classed as cell membranes, Membrane. The following applies: hek293.
`Cc1cc(NS(=O)(=O)c2ccc(N)cc2)no1` [SULFAMETHOXAZOLE]: the IC50 entry is recorded as “Not Active”.

Regarding `CSc1ccc2c(c1)N(CCC1CCCCN1C)c1ccccc1S2` (configuration not stated) [THIORIDAZINE], the IC50 entry is given as “Not Active”.

In the case of `COc1cccc(C2(O)CCCCC2CN(C)C)c1` (configuration not stated) [TRAMADOL], the IC50 entry was “Not Active”.

For the compound `O=C(CCCN1CCC(O)(c2ccc(Cl)cc2)CC1)c1ccc(F)cc1` [HALOPERIDOL], the IC50 entry is “Not Active”.

For the next assay, the target named is Receptor tyrosine-protein kinase erbB-2 (Homo sapiens, UniProt P04626). Put plainly: biochemical. The following applies: insect cells. The format is cell-based, Insect cells.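 Further: inhibition of HER2 kinase enzyme activity, measured with Poly(Glu:Tyr) as the phosphorylation substrate; in other assays of this panel Not Active means under 50% inhibition at 10 µM.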
Receptor tyrosine-protein kinase erbB-2, sequence (P04626 whole entry): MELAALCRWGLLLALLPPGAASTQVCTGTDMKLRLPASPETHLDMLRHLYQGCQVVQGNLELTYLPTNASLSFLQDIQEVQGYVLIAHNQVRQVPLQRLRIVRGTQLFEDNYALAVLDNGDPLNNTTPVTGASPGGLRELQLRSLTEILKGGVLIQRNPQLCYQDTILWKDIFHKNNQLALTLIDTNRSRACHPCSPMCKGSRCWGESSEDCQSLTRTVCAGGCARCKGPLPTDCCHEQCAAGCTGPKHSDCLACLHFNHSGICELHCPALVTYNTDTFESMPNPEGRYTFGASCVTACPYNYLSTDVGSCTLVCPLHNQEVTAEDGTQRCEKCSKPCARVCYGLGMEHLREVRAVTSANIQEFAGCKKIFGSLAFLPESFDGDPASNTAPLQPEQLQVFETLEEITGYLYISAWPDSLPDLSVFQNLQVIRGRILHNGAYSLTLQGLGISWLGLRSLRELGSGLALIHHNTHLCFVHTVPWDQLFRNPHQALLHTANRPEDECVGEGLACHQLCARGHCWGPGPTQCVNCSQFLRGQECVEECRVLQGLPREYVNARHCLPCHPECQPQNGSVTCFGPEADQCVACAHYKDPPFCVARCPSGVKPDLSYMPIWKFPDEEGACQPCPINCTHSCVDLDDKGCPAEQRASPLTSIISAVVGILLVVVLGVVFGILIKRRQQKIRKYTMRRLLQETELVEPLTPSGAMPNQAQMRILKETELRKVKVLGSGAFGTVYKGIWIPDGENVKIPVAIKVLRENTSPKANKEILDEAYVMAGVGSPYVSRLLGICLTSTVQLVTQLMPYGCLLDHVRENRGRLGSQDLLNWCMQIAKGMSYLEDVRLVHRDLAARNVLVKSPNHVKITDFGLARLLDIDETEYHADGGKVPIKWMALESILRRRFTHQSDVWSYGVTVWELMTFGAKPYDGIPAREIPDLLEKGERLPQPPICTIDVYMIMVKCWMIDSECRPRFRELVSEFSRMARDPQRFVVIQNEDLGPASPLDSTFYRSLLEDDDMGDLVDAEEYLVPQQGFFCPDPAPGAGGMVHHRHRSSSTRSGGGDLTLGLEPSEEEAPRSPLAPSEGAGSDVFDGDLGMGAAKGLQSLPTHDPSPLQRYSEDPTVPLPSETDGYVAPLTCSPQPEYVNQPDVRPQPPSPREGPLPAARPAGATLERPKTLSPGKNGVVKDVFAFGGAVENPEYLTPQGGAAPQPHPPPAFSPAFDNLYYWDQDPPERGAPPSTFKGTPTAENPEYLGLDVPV
Regarding `Cc1cc(NS(=O)(=O)c2ccc(N)cc2)no1` [SULFAMETHOXAZOLE], the IC50 entry is reported as “Not Active”.

In the case of `CSc1ccc2c(c1)N(CCC1CCCCN1C)c1ccccc1S2` (configuration not stated) [THIORIDAZINE], the 50% inhibitory concentration (IC50) result is “Not Active”.

For the compound `COc1cccc(C2(O)CCCCC2CN(C)C)c1` (configuration not stated) [TRAMADOL], the half-inhibitory concentration (IC50) entry is recorded as “Not Active”.

As to `O=C(CCCN1CCC(O)(c2ccc(Cl)cc2)CC1)c1ccc(F)cc1` [HALOPERIDOL], the half-inhibitory concentration (IC50) entry is reported as “Not Active”.

In a further assay the target is Histamine H2 receptor (Homo sapiens, UniProt P25021). Further: in other assays of this panel Not Active means under 50% inhibition at 10 µM.
Experiment: not given
The assay is classed as cell membranes, CHO-K1, Membrane. Particulars: cho-k1.
In the case of `Cc1cc(NS(=O)(=O)c2ccc(N)cc2)no1` [SULFAMETHOXAZOLE], the IC50 entry is “Not Active”.

On to `COc1cccc(C2(O)CCCCC2CN(C)C)c1` (configuration not stated) [TRAMADOL], for which the IC50 result is recorded as “Not Active”.

Test system in the next assay: not listed separately
Put plainly: DRUGMATRIX: Sigma2 radioligand binding (ligand: [3H] Ifenprodil). The format is cell membranes, Rattus norvegicus, Wistar, Brain, Membrane. The following applies: Not Active = under 50% inhibition at 10 µM.
With `Cc1cc(NS(=O)(=O)c2ccc(N)cc2)no1` [SULFAMETHOXAZOLE], the IC50 result was “Not Active” and the Ki entry was “Not Active”.

The target of a further assay is T2, Muscarinic acetylcholine receptor M5 (Homo sapiens, UniProt P08912). Further: in other assays of this panel Not Active means under 50% inhibition at 10 µM.
T2 sequence (P08912 whole entry): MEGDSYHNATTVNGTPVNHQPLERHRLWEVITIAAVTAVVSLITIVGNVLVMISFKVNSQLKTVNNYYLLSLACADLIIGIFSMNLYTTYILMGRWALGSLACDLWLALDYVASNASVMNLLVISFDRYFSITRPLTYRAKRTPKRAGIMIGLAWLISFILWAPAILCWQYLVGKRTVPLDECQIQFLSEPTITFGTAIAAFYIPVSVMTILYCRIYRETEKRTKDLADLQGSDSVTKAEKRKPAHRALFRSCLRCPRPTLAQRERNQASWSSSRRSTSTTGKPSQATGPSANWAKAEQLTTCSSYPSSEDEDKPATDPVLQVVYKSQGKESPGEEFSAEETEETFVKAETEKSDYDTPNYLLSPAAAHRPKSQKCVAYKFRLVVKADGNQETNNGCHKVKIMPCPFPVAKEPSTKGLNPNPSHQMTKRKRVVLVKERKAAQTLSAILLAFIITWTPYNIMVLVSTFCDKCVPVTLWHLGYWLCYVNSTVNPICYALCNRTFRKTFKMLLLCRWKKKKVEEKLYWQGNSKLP
Experiment: not given
Particulars: cho-k1. The format is cell membranes, CHO-K1, Membrane.
Turning to `Cc1cc(NS(=O)(=O)c2ccc(N)cc2)no1` [SULFAMETHOXAZOLE], the IC50 entry is reported as “Not Active”.

Take `COc1cccc(C2(O)CCCCC2CN(C)C)c1` (configuration not stated) [TRAMADOL]: the IC50 entry is “Not Active”.

Test system in a further assay: not listed separately
Put plainly: DRUGMATRIX: GABAA, Flunitrazepam, Central radioligand binding (ligand: [3H] Flunitrazepam). The assay is classed as cell membranes, Rattus norvegicus, Wistar, Brain, Membrane. Particulars: Not Active = under 50% inhibition at 10 µM.
As for `Cc1cc(NS(=O)(=O)c2ccc(N)cc2)no1` [SULFAMETHOXAZOLE], the IC50 entry is on record as “Not Active” and the Ki entry was “Not Active”.

A further assay concerns the target T3, Neutrophil elastase (Homo sapiens, UniProt P08246).
T3 sequence (P08246 whole entry): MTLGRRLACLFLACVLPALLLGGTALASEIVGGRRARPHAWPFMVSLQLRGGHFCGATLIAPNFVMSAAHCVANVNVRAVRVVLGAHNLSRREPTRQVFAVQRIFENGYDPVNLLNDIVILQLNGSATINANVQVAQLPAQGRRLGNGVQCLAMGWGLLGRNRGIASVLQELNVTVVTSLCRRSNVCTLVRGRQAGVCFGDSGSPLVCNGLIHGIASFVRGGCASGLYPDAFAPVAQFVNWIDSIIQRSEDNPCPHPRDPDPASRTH
Experiment: not given
The assay is classed as tissue-based.
Conditions: not given
On to `Cc1cc(NS(=O)(=O)c2ccc(N)cc2)no1` [SULFAMETHOXAZOLE], for which the IC50 entry is “Not Active”.

On to `CSc1ccc2c(c1)N(CCC1CCCCN1C)c1ccccc1S2` (configuration not stated) [THIORIDAZINE], for which the 50% inhibitory concentration (IC50) entry was “Not Active”.

For the compound `COc1cccc(C2(O)CCCCC2CN(C)C)c1` (configuration not stated) [TRAMADOL], the IC50 entry is given as “Not Active”.

Take `O=C(CCCN1CCC(O)(c2ccc(Cl)cc2)CC1)c1ccc(F)cc1` [HALOPERIDOL]: the IC50 entry is given as “Not Active”.

Test system in another assay: not listed separately
Description: DRUGMATRIX: Leukotriene, BLT (LTB4) radioligand binding (ligand: [3H]LTB4). The format is cell membranes, Membrane. The following applies: u-937; Not Active = under 50% inhibition at 10 µM.
As for `Cc1cc(NS(=O)(=O)c2ccc(N)cc2)no1` [SULFAMETHOXAZOLE], the IC50 result is “Not Active” and the Ki result is reported as “Not Active”.

A further assay concerns the target Insulin receptor (Rattus norvegicus, UniProt P15127). Further: in other assays of this panel Not Active means under 50% inhibition at 10 µM.
Experiment: not given
The assay is classed as cell membranes, Wistar, Liver, Membrane.
Conditions: not given
Take `Cc1cc(NS(=O)(=O)c2ccc(N)cc2)no1` [SULFAMETHOXAZOLE]: the IC50 entry is reported as “Not Active”.

As for `CSc1ccc2c(c1)N(CCC1CCCCN1C)c1ccccc1S2` (configuration not stated) [THIORIDAZINE], the IC50 entry is “Not Active”.

With `COc1cccc(C2(O)CCCCC2CN(C)C)c1` (configuration not stated) [TRAMADOL], the IC50 result is on record as “Not Active”.

With `O=C(CCCN1CCC(O)(c2ccc(Cl)cc2)CC1)c1ccc(F)cc1` [HALOPERIDOL], the IC50 result is “Not Active”.

In the next assay the target is T4, Muscarinic acetylcholine receptor M4 (Homo sapiens, UniProt P08173). Further: in other assays of this panel Not Active means under 50% inhibition at 10 µM.
T4 sequence (P08173 whole entry): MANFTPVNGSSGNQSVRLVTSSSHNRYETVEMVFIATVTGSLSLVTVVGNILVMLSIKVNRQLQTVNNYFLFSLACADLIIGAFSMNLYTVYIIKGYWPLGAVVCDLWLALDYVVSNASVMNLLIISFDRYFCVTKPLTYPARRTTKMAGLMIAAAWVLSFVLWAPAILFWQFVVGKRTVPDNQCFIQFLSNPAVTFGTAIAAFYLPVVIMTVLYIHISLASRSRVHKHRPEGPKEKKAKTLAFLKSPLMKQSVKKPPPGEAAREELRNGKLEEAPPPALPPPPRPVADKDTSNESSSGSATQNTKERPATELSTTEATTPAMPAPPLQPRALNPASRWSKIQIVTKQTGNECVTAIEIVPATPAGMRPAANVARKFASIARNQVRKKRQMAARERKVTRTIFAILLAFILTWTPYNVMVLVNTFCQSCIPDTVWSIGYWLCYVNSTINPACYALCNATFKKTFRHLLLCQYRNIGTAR
Experiment: not given
The format is cell membranes, CHO-K1, Membrane. The following applies: cho-k1.
For the compound `Cc1cc(NS(=O)(=O)c2ccc(N)cc2)no1` [SULFAMETHOXAZOLE], the IC50 result is listed as “Not Active”.

Regarding `COc1cccc(C2(O)CCCCC2CN(C)C)c1` (configuration not stated) [TRAMADOL], the IC50 result was “Not Active”.

Take `O=C(CCCN1CCC(O)(c2ccc(Cl)cc2)CC1)c1ccc(F)cc1` [HALOPERIDOL]: the IC50 entry is reported as “Not Active”.

In the next assay the target is Sodium-dependent dopamine transporter (Homo sapiens, UniProt Q01959). Description: DRUGMATRIX: Dopamine Transporter radioligand binding (ligand: [125I] RTI-55). The format is cell membranes, CHO-K1, Membrane. Particulars: cho-k1; Not Active = under 50% inhibition at 10 µM.
Sodium-dependent dopamine transporter, sequence (Q01959 whole entry): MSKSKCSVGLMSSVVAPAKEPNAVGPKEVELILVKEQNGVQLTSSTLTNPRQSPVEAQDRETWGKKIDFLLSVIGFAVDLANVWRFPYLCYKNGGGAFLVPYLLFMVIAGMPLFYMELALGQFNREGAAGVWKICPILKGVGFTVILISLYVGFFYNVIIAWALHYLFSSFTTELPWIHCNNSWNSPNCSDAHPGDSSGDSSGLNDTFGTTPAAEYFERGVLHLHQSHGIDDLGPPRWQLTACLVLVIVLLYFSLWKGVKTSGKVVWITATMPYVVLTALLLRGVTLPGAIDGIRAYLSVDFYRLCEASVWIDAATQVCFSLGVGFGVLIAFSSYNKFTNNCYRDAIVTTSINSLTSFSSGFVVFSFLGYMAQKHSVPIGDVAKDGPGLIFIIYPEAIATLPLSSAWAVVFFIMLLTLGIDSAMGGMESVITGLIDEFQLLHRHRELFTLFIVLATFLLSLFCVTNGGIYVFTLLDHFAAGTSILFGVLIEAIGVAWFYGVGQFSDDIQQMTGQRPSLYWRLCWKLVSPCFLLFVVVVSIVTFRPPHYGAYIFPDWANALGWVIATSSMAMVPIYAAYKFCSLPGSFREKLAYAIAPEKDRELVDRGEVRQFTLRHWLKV
Consider `Cc1cc(NS(=O)(=O)c2ccc(N)cc2)no1` [SULFAMETHOXAZOLE], for which the IC50 entry is recorded as “Not Active”.

Consider `COc1cccc(C2(O)CCCCC2CN(C)C)c1` (configuration not stated) [TRAMADOL], for which the concentration for half-maximal inhibition (IC50) result is recorded as “Not Active”.

For the origin of these results see ChEMBL document CHEMBL1909046, “DrugMatrix in vitro pharmacology data”.
